Experimental data: the supplement of paper PMC10307832

What was measured:
Test in all cases: relative viability (nuclei count vs DMSO), 5 days (fraction); higher = more cells survive
[1] = compound: CC1=CC(=NN1)NC2=CC(=NC(=N2)/C=C/C3=CC=CC=C3)N4CCN(CC4)C + Nc1ncn([C@H]2C[C@H](O)[C@@H](CO)O2)c(=O)n1 [Decitabine] (partner 2 µM)
In short: (§1)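 Nuclei were stained with Hoechst during a one-step fixation (final 0.05% Triton X-100, 1% formaldehyde, 1 ug/ml Hoechst) carried out 5 days after dosing, then counted on 4× images. The cells, lung cancer lines in 1536-well plates, had been dosed by pin tool the day after seeding with one drug alone or a fixed anchor-drug dose plus five library-drug doses (not always all listed) in √10 steps. Relative viability is the nuclei count in treated wells divided by that in vehicle wells, and each value is the median of duplicate plates.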

Obatoclax + Tozasertib = compound: COC1=CC(c2cc3ccccc3[nH]2)=N/C1=C\c1[nH]c(C)cc1C [Obatoclax] + Cc1cc(Nc2cc(N3CCN(C)CC3)nc(Sc3ccc(NC(=O)C4CC4)cc3)n2)n[nH]1 [Tozasertib] (partner 0.1 µM)
In short: as §1

Bortezomib + Crizotinib = compound: CC(C)C[C@H](NC(=O)[C@H](Cc1ccccc1)NC(=O)c1cnccn1)B(O)O [Bortezomib] + C[C@@H](Oc1cc(-c2cnn(C3CCNCC3)c2)cnc1N)c1c(Cl)ccc(F)c1Cl [Crizotinib] (partner 1 µM)
In short: as §1

Obatoclax + Bortezomib = compound: COC1=CC(c2cc3ccccc3[nH]2)=N/C1=C\c1[nH]c(C)cc1C [Obatoclax] + CC(C)C[C@H](NC(=O)[C@H](Cc1ccccc1)NC(=O)c1cnccn1)B(O)O [Bortezomib] (partner 0.002 µM)
In short: as §1

Work on NCI-H522 yielded a relative viability ([1]; first compound 0.08 µM) of 0.593, a relative viability ([1]; first compound 0.253 µM) of 0.685 and a relative viability ([1]; first compound 0.8 µM) of 0.69. For the same cell line, the relative viability ([1]; first compound 2.53 µM) was 0.601, the relative viability ([1]; first compound 8 µM) was 0.391 and the relative viability (Obatoclax + Tozasertib; first compound 0.01 µM) was 0.656. It also gave a relative viability (Obatoclax + Tozasertib; first compound 0.03162 µM) of 0.429, a relative viability (Obatoclax + Tozasertib; first compound 0.1 µM) of 0.605 and a relative viability (Obatoclax + Tozasertib; first compound 0.3162 µM) of 0.545. The relative viability (Obatoclax + Tozasertib; first compound 1 µM) was 0.539.
For NCI-H1563, the relative viability (Bortezomib + Crizotinib; first compound 0.0002 µM) was 0.894, the relative viability (Bortezomib + Crizotinib; first compound 0.000632 µM) was 0.902 and the relative viability (Bortezomib + Crizotinib; first compound 0.002 µM) was 0.732. The relative viability (Bortezomib + Crizotinib; first compound 0.006325 µM) was 0.522, the relative viability (Bortezomib + Crizotinib; first compound 0.02 µM) was 0.443 and the relative viability (Obatoclax + Bortezomib; first compound 0.01 µM) was 0.905. The relative viability (Obatoclax + Bortezomib; first compound 0.03162 µM) was 0.883, the relative viability (Obatoclax + Bortezomib; first compound 0.1 µM) was 0.835 and the relative viability (Obatoclax + Bortezomib; first compound 0.3162 µM) was 0.714. It also gave a relative viability (Obatoclax + Bortezomib; first compound 1 µM) of 0.833.
For NCI-H1703, the relative viability (Bortezomib + Crizotinib; first compound 0.0002 µM) was 0.561, the relative viability (Bortezomib + Crizotinib; first compound 0.000632 µM) was 0.495 and the relative viability (Bortezomib + Crizotinib; first compound 0.002 µM) was 0.133. The relative viability (Bortezomib + Crizotinib; first compound 0.006325 µM) was 0.101, the relative viability (Bortezomib + Crizotinib; first compound 0.02 µM) was 0.081 and the relative viability (Obatoclax + Bortezomib; first compound 0.01 µM) was 0.456. The relative viability (Obatoclax + Bortezomib; first compound 0.03162 µM) was 0.38, the relative viability (Obatoclax + Bortezomib; first compound 0.1 µM) was 0.304 and the relative viability (Obatoclax + Bortezomib; first compound 0.3162 µM) was 0.227. The relative viability (Obatoclax + Bortezomib; first compound 1 µM) was 0.22.
With NCI-H2170 the relative viability ([1]; first compound 0.08 µM) was 0.452, the relative viability ([1]; first compound 0.253 µM) was 0.51 and the relative viability ([1]; first compound 0.8 µM) was 0.467. For the same cell line, the relative viability ([1]; first compound 2.53 µM) was 0.373, the relative viability ([1]; first compound 8 µM) was 0.251 and the relative viability (Bortezomib + Crizotinib; first compound 0.0002 µM) was 1.03. It also gave a relative viability (Bortezomib + Crizotinib; first compound 0.000632 µM) of 1.02, a relative viability (Bortezomib + Crizotinib; first compound 0.002 µM) of 1.11 and a relative viability (Bortezomib + Crizotinib; first compound 0.006325 µM) of 0.233. For the same cell line, the relative viability (Bortezomib + Crizotinib; first compound 0.02 µM) was 0.18, the relative viability (Obatoclax + Tozasertib; first compound 0.01 µM) was 0.759 and the relative viability (Obatoclax + Tozasertib; first compound 0.03162 µM) was 0.758. For the same cell line, the relative viability (Obatoclax + Tozasertib; first compound 0.1 µM) was 0.718, the relative viability (Obatoclax + Tozasertib; first compound 0.3162 µM) was 0.715 and the relative viability (Obatoclax + Tozasertib; first compound 1 µM) was 0.753.
NCI-H1648 showed a relative viability ([1]; first compound 0.08 µM) of 0.417, a relative viability ([1]; first compound 0.253 µM) of 0.552 and a relative viability ([1]; first compound 0.8 µM) of 0.606. It also gave a relative viability ([1]; first compound 2.53 µM) of 0.294, a relative viability ([1]; first compound 8 µM) of 0.463 and a relative viability (Obatoclax + Tozasertib; first compound 0.01 µM) of 0.515. It also gave a relative viability (Obatoclax + Tozasertib; first compound 0.03162 µM) of 0.499, a relative viability (Obatoclax + Tozasertib; first compound 0.1 µM) of 1.01 and a relative viability (Obatoclax + Tozasertib; first compound 0.3162 µM) of 0.465. It also gave a relative viability (Obatoclax + Tozasertib; first compound 1 µM) of 0.361.
NCI-H1793 gave a relative viability ([1]; first compound 0.08 µM) of 0.488, a relative viability ([1]; first compound 0.253 µM) of 0.554 and a relative viability ([1]; first compound 0.8 µM) of 0.43. It also gave a relative viability ([1]; first compound 2.53 µM) of 0.127, a relative viability ([1]; first compound 8 µM) of 0.123 and a relative viability (Obatoclax + Tozasertib; first compound 0.01 µM) of 0.309. For the same cell line, the relative viability (Obatoclax + Tozasertib; first compound 0.03162 µM) was 0.393, the relative viability (Obatoclax + Tozasertib; first compound 0.1 µM) was 0.406 and the relative viability (Obatoclax + Tozasertib; first compound 0.3162 µM) was 0.324. For the same cell line, the relative viability (Obatoclax + Tozasertib; first compound 1 µM) was 0.297.
With NCI-H1792 the relative viability ([1]; first compound 0.08 µM) was 0.435, the relative viability ([1]; first compound 0.253 µM) was 0.556 and the relative viability ([1]; first compound 0.8 µM) was 0.377. For the same cell line, the relative viability ([1]; first compound 2.53 µM) was 0.332, the relative viability ([1]; first compound 8 µM) was 0.0377 and the relative viability (Bortezomib + Crizotinib; first compound 0.0002 µM) was 0.893. For the same cell line, the relative viability (Bortezomib + Crizotinib; first compound 0.000632 µM) was 0.974, the relative viability (Bortezomib + Crizotinib; first compound 0.002 µM) was 0.952 and the relative viability (Bortezomib + Crizotinib; first compound 0.006325 µM) was 0.933. The relative viability (Bortezomib + Crizotinib; first compound 0.02 µM) was 0.729, the relative viability (Obatoclax + Bortezomib; first compound 0.01 µM) was 0.992 and the relative viability (Obatoclax + Bortezomib; first compound 0.03162 µM) was 0.926. For the same cell line, the relative viability (Obatoclax + Bortezomib; first compound 0.3162 µM) was 0.917 and the relative viability (Obatoclax + Bortezomib; first compound 1 µM) was 0.975.
Cell Line SW 900 has a relative viability ([1]; first compound 0.08 µM) of 0.426, a relative viability ([1]; first compound 0.253 µM) of 0.377 and a relative viability ([1]; first compound 0.8 µM) of 0.413. For the same cell line, the relative viability ([1]; first compound 2.53 µM) was 0.277, the relative viability ([1]; first compound 8 µM) was 0.139 and the relative viability (Obatoclax + Tozasertib; first compound 0.01 µM) was 0.67. The relative viability (Obatoclax + Tozasertib; first compound 0.03162 µM) was 0.571, the relative viability (Obatoclax + Tozasertib; first compound 0.1 µM) was 0.499 and the relative viability (Obatoclax + Tozasertib; first compound 0.3162 µM) was 0.33. For the same cell line, the relative viability (Obatoclax + Tozasertib; first compound 1 µM) was 0.281.
With EBC-1 the relative viability (Bortezomib + Crizotinib; first compound 0.0002 µM) was 0.172, the relative viability (Bortezomib + Crizotinib; first compound 0.000632 µM) was 0.172 and the relative viability (Bortezomib + Crizotinib; first compound 0.002 µM) was 0.162. For the same cell line, the relative viability (Bortezomib + Crizotinib; first compound 0.006325 µM) was 0.106, the relative viability (Bortezomib + Crizotinib; first compound 0.02 µM) was 0.0978 and the relative viability (Obatoclax + Bortezomib; first compound 0.01 µM) was 0.637. For the same cell line, the relative viability (Obatoclax + Bortezomib; first compound 0.03162 µM) was 0.602, the relative viability (Obatoclax + Bortezomib; first compound 0.1 µM) was 0.481 and the relative viability (Obatoclax + Bortezomib; first compound 0.3162 µM) was 0.341. The relative viability (Obatoclax + Bortezomib; first compound 1 µM) was 0.232.
Work on NCI-H1395 yielded a relative viability ([1]; first compound 0.08 µM) of 0.7, a relative viability ([1]; first compound 0.253 µM) of 0.771 and a relative viability ([1]; first compound 0.8 µM) of 0.708. It also gave a relative viability ([1]; first compound 2.53 µM) of 0.514, a relative viability ([1]; first compound 8 µM) of 0.291 and a relative viability (Obatoclax + Tozasertib; first compound 0.01 µM) of 0.674. It also gave a relative viability (Obatoclax + Tozasertib; first compound 0.03162 µM) of 0.609, a relative viability (Obatoclax + Tozasertib; first compound 0.1 µM) of 0.64 and a relative viability (Obatoclax + Tozasertib; first compound 0.3162 µM) of 0.769. The relative viability (Obatoclax + Tozasertib; first compound 1 µM) was 0.547.
For LK-2, the relative viability ([1]; first compound 0.08 µM) was 0.215, the relative viability ([1]; first compound 0.253 µM) was 0.327 and the relative viability ([1]; first compound 0.8 µM) was 0.274. The relative viability ([1]; first compound 2.53 µM) was 0.175, the relative viability ([1]; first compound 8 µM) was 0.0787 and the relative viability (Bortezomib + Crizotinib; first compound 0.000632 µM) was 0.243. For the same cell line, the relative viability (Bortezomib + Crizotinib; first compound 0.002 µM) was 0.277, the relative viability (Bortezomib + Crizotinib; first compound 0.006325 µM) was 0.207 and the relative viability (Bortezomib + Crizotinib; first compound 0.02 µM) was 0.222. The relative viability (Obatoclax + Tozasertib; first compound 0.01 µM) was 0.194, the relative viability (Obatoclax + Tozasertib; first compound 0.03162 µM) was 0.175 and the relative viability (Obatoclax + Tozasertib; first compound 0.1 µM) was 0.197. The relative viability (Obatoclax + Tozasertib; first compound 0.3162 µM) was 0.208 and the relative viability (Obatoclax + Tozasertib; first compound 1 µM) was 0.149.
Work on NCI-H1299 yielded a relative viability (Bortezomib + Crizotinib; first compound 0.0002 µM) of 0.943, a relative viability (Bortezomib + Crizotinib; first compound 0.000632 µM) of 0.965 and a relative viability (Bortezomib + Crizotinib; first compound 0.002 µM) of 0.969. For the same cell line, the relative viability (Bortezomib + Crizotinib; first compound 0.006325 µM) was 0.39, the relative viability (Bortezomib + Crizotinib; first compound 0.02 µM) was 0.152 and the relative viability (Obatoclax + Bortezomib; first compound 0.01 µM) was 0.969. It also gave a relative viability (Obatoclax + Bortezomib; first compound 0.03162 µM) of 1.05, a relative viability (Obatoclax + Bortezomib; first compound 0.1 µM) of 0.982 and a relative viability (Obatoclax + Bortezomib; first compound 0.3162 µM) of 1. It also gave a relative viability (Obatoclax + Bortezomib; first compound 1 µM) of 0.93.
A549 showed a relative viability ([1]; first compound 0.08 µM) of 0.21, a relative viability ([1]; first compound 0.253 µM) of 0.394 and a relative viability ([1]; first compound 0.8 µM) of 0.212. It also gave a relative viability ([1]; first compound 2.53 µM) of 0.104, a relative viability ([1]; first compound 8 µM) of 0.0286 and a relative viability (Bortezomib + Crizotinib; first compound 0.0002 µM) of 0.767. The relative viability (Bortezomib + Crizotinib; first compound 0.000632 µM) was 0.631, the relative viability (Bortezomib + Crizotinib; first compound 0.002 µM) was 0.789 and the relative viability (Bortezomib + Crizotinib; first compound 0.006325 µM) was 0.0392. The relative viability (Bortezomib + Crizotinib; first compound 0.02 µM) was 0.0432.
With NCI-H1623 the relative viability (Obatoclax + Tozasertib; first compound 0.01 µM) was 0.428, the relative viability (Obatoclax + Tozasertib; first compound 0.03162 µM) was 0.422 and the relative viability (Obatoclax + Tozasertib; first compound 0.1 µM) was 0.426. The relative viability (Obatoclax + Tozasertib; first compound 0.3162 µM) was 0.451 and the relative viability (Obatoclax + Tozasertib; first compound 1 µM) was 0.38.
Work on IA-LM yielded a relative viability (Bortezomib + Crizotinib; first compound 0.0002 µM) of 0.996, a relative viability (Bortezomib + Crizotinib; first compound 0.000632 µM) of 0.699 and a relative viability (Bortezomib + Crizotinib; first compound 0.002 µM) of 0.559. For the same cell line, the relative viability (Bortezomib + Crizotinib; first compound 0.006325 µM) was 0.0382, the relative viability (Bortezomib + Crizotinib; first compound 0.02 µM) was 0.0338 and the relative viability (Obatoclax + Bortezomib; first compound 0.01 µM) was 0.838. The relative viability (Obatoclax + Bortezomib; first compound 0.03162 µM) was 0.723, the relative viability (Obatoclax + Bortezomib; first compound 0.1 µM) was 0.727 and the relative viability (Obatoclax + Bortezomib; first compound 0.3162 µM) was 0.0591. It also gave a relative viability (Obatoclax + Bortezomib; first compound 1 µM) of 0.0714.
